Experimental data published in US7935706B2, “Nitrogen-containing heterocycle derivatives substituted with cyclic group” (Shionogi & Co., Ltd., priority 2006, dated 2011).
pIC50: −log10 of the molar value. Read-outs that look alike come from different tables or passages of the source.

Assays:
[1] = target: T1, NMDA receptor (NR1 subunit and NR2B subunit) (Mus musculus, UniProt P35438+Q01097); assay: Measurement of expression of NMDA receptor and Ca ion influx amount (glutamic acid/glycine-induced, HEK293 cell co-expressing NR1 and NR2B subunits, Fluo-3/AM); assay type: cell-based
T1 construct: expressed in transfected cells; host or cells: HEK293 cells, transient transfection with pcDNA3.1 plasmids
Protocol: Measurement of Expression of NMDA Receptor and Ca Ion Influx Amount
A complementary DNA (cDNA) of a mouse NMDA receptor subunit was transiently introduced into a HEK293 cell and, after 1 day from introduction, change in a glutamic acid/glycine-induced intracelluar Ca amount was measured using a Ca ion reactive fluorescent coloring matter.
The HEK293 cell was cultured, and passaged using a modified Dulbecco's Eagle medium (DMEM, low glucose).
The HEK293 cell (20,000/well) was seeded on a 96-well plate, a NR1 subunit and a NR2B subunit of the NMDA receptor incorporated into the pcDNA3.1 plasmid were transiently introduced into a cell, and the subunits were co-expressed. An introduction amount of a DNA was 0.025 μg in the case of the NR1 subunit, and 0.075 μg in the case of NR2B subunit per well. For the cell after introduction, cell death was inhibited using 50 μM of the NMDA receptor antagonist MK-801.
For adjusting a test compound and washing a cell, Krebs/Ringer/Hepes buffer (KRH, Ca: 5 mM) was used.
After 1 day from introduction, the NMDA receptor antagonist MK-801 was washed out using the KRH buffer, and a Ca ion indication fluorescent coloring matter Fluo-3/AM was made to be taken into the cell. Ca ion influx was induced with 20 μM glutamic acid/2 μM glycine. Change in a fluorescent amount due to Ca ion influx into the cell was measured at excitation of 480 nm using a fluorescent imaging system FDSS 3000.
From a measured value of the test compound, a Ca ion influx inhibition rate (%) was obtained by the following equation, and a dose at which influx is inhibited 50% (IC50) was calculated.
Ca ion influx inhibition rate(%)=100−[(fluorescent amount in the presence of test compound−background fluorescent amount)/(total fluorescent amount−background fluorescent)]×100

[2] = target: T2, NR1/NR2B receptor (Rattus norvegicus, UniProt P35439+Q00960); assay: Test of binding with NMDA receptor (NR1/NR2B receptor): competition with [3H]-Ifenprodil on rat cerebral cortex membrane specimen; settings: for pIC50: same binding test, read-out: IC50 (binding with NR1/NR2B receptor); for IC50: [3H]-Ifenprodil 5 nM, GBR-12909 3 μM, rat cerebral cortex membranes, ice temperature 120 minutes, read-out: NR2B (IC50 μM)
T2 construct: from tissue; host or cells: rat cerebral cortex membranes (male Slc: Wistar rat)
Protocol: Test of Binding with NMDR Receptor (NR1/NR2B Receptor)
Using Ifenprodil which is an antagonist specific for a NR1/NR2B subtype receptor as a ligand, an experiment of competition between a receptor and a test compound was performed.
Using a male Slc: Wistar rat as an animal, a brain was isolated after decapitation, and a cerebral cortex was fractionated. The cerebral cortex was homogenized with a 20-fold amount of an ice-cooled 50 mM Tris/HCl buffer (pH 7.4), and the homogenate was centrifuged at 4° C. and 27,500×g for 10 minutes. The resulting precipitate was suspended in the same buffer, and this was again centrifuged. This operation was repeated for three times, the resulting precipitate was suspended in a buffer, and this was stored at −80° C. Immediately before an experiment, the frozen suspension was thawed at room temperature, this was centrifuged at 4° C. and 27,500×g for 10 minutes, and the resulting precipitate was suspended in a buffer. Further, the suspension was diluted 10-fold with a buffer, and this was used as a membrane specimen in an experiment. In a binding experiment, to 470 μl of the membrane specimen were added […] of each of test compounds having different concentrations, 10 μl of a labeled ligand [^3H]-Ifenprodil and 10 μl GBR-12909, followed by incubation at an ice temperature for 120 minutes. A concentration of [^3H]-Ifenprodil of the labeled ligand was finally 5 nM, and a concentration of GBR-12909 was finally 3 μM. For measuring a total binding amount, DMSO as a solvent was used and, for measuring a non-specific binding amount, 100 μM Ifenprodil was used. GBR-12909 was added in order to block binding of [^3H]-Ifenprodil to non-polyamine-sensitive site. After incubation, a bound formand a free foramwere separated using Whatman GF/C filter (manufactured by Whatman), and the filter was washed with 2.5 ml ice-cooled buffer four times. The filter was immersed in liquid scintillation (Cryasol I, manufactured by Nacalai tesque), and radioactivity (dpm) was measured with a liquid scintillation counter. From a measured value, a binding inhibition rate (%) was obtained by the following equation, and a dose at which binding is inhibited 50% (IC50) was calculated. A formula of GBR-12909 (vanoxerine) is shown below.
Binding inhibition rate(%)=100−[(binding amount in the presence of test compound−non-specific binding amount)/(total binding amount−non-specific binding amount)]×100

[3] = Ca ion influx induced with 20 μM glutamic acid/2 μM glycine, HEK293 cell with mouse NR1/NR2B, read-out: Ca2+ IC50
[4] = same Ca ion influx test, read-out: IC50 (Ca ion influx inhibition)

T2 sequence (Q00960 27-1482, other chains not shown): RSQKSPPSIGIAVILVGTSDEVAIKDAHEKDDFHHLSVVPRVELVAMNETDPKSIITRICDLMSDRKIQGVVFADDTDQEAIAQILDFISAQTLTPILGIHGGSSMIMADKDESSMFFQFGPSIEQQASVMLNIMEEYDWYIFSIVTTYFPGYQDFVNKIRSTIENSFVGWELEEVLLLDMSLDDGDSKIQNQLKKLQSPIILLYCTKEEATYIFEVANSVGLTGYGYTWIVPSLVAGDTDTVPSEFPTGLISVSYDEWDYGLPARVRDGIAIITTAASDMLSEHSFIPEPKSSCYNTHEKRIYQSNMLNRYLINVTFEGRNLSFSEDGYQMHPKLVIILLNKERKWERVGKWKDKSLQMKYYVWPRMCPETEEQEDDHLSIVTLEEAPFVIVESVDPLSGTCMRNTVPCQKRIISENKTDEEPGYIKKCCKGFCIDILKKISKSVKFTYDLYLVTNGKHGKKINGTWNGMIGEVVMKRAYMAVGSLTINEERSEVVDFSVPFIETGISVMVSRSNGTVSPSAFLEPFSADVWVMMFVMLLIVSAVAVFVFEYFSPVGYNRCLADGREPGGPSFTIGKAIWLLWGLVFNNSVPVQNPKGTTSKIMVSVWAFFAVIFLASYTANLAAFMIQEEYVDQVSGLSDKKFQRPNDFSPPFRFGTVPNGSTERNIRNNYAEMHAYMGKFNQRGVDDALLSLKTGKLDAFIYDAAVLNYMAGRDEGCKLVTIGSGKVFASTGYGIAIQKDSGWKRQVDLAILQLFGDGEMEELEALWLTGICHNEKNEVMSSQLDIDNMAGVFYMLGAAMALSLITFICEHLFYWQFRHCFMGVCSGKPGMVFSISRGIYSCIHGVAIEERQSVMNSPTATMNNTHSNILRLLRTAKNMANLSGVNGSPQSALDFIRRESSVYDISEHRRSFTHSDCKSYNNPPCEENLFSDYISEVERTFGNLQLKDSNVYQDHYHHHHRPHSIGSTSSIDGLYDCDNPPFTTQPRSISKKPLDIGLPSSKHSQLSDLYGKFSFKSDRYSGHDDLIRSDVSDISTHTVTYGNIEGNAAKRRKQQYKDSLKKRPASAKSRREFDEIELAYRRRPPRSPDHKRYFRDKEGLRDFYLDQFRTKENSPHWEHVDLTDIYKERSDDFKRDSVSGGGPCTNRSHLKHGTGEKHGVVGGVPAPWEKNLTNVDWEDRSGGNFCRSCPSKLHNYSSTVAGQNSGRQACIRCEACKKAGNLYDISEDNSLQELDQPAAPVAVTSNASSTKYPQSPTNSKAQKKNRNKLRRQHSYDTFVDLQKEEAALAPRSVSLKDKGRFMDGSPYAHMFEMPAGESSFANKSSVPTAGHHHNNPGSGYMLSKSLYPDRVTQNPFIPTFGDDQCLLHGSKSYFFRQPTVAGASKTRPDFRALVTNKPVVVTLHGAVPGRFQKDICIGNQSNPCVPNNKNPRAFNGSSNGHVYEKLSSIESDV
T1 sequence (Q01097 27-1482, other chains not shown): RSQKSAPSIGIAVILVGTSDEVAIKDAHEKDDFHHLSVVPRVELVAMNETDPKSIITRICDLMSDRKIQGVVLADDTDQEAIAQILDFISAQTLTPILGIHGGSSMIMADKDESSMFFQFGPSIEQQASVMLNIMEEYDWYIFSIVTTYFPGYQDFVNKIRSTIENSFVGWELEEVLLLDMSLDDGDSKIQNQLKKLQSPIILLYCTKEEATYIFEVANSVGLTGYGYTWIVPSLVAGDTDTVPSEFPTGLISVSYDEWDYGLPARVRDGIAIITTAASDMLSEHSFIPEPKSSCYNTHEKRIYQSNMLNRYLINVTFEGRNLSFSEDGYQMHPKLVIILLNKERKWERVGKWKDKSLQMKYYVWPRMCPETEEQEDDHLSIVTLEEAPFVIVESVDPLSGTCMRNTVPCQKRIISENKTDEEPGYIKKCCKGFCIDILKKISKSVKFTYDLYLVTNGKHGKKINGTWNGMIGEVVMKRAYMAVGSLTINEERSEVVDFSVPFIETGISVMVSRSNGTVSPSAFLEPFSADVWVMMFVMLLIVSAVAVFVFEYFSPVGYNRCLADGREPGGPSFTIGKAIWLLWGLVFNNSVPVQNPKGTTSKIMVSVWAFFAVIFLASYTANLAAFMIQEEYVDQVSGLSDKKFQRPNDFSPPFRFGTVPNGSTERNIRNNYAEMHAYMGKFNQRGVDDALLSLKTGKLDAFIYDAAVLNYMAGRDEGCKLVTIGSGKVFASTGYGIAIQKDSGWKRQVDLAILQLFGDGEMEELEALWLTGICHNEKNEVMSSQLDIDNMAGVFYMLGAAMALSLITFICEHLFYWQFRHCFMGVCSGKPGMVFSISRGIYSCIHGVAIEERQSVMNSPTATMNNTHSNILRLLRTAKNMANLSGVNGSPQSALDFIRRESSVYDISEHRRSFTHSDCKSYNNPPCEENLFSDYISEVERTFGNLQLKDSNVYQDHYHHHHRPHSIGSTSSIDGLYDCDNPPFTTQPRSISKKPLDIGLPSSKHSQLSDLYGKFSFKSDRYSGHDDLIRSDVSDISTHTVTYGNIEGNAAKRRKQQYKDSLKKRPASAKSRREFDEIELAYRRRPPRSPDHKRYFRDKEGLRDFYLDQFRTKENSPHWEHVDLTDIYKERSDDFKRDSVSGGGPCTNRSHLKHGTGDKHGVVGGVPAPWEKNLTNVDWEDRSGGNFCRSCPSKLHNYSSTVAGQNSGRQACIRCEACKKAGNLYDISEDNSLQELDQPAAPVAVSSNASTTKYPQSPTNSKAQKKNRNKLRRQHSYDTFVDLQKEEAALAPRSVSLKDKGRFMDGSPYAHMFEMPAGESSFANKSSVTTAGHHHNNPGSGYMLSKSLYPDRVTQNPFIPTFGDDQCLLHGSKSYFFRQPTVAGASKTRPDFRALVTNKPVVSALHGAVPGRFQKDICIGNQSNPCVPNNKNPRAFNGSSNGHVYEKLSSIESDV

Row | SMILES | pIC50 [1, 3] | also measured
1 | O=C(C=C1CCN(c2ccc(C(F)(F)F)cc2)CC1)Nc1ccc2[nH]c(=O)oc2c1 [Compound I-16] | 7.43 | 
2 | C[C@@H]1CN(C(=O)C(=O)Nc2ccc3[nH]c(=O)oc3c2)CCN1c1ccc(OC(F)(F)F)cc1 [Compound I-212] |  | pIC50 [1, 4]: ≥ 7.00
3 | O=C(CC1(O)CCN(c2ccc(F)c(C(F)(F)F)c2)CC1)Nc1ccc2[nH]c(=O)sc2c1 [Compound I-80] | 7.28 | 
4 | O=C(Nc1cnc2[nH]c(=O)oc2c1)C(=O)N1CCN(c2ccc(Cl)cc2)CC1 [Compound I-76] |  | pIC50 [1, 4]: ≥ 7.00
5 | O=C(NCC1CCN(c2ccc(C(F)(F)F)cc2)CC1)c1ccc2[nH]c(=O)oc2c1 [Compound I-11] | 7.16 | 
6 | C[C@@H]1CN(c2ccc(Cl)cn2)CCN1C(=O)C(=O)Nc1ccc2[nH]c(=O)oc2c1 [Compound I-241] |  | pIC50 [2]: ≥ 7.00
7 | COc1ccc(N2CCN(C(=O)C(=O)Nc3ccc4[nH]c(=O)oc4c3)CC2)cc1F [Compound I-232] |  | pIC50 [2]: ≥ 7.00
8 | O=C(Nc1cnc2[nH]c(=O)oc2c1)C(=O)N1CCN(c2ccc(F)c(Cl)c2)CC1 [Compound I-111] |  | pIC50 [1, 4]: ≥ 7.00
9 | O=C(C=C1CCN(c2ccc(F)c(F)c2)CC1)Nc1ccc2[nH]c(=O)oc2c1 [Compound I-192] |  | IC50 [2]: 0.052 µM
10 | O=C1Cc2cc(NC(=O)C(=O)N3CCN(c4ccc(Cl)c(F)c4)CC3)ccc2N1 [Compound I-200] |  | IC50 [2]: 0.081 µM
11 | O=C1Cc2cc(NC(=O)C(=O)N3CCN(c4ccc(C(F)(F)F)c(F)c4)CC3)ccc2N1 [Compound I-201] |  | IC50 [2]: 0.074 µM
12 | CC(C)c1ccc(N2CCC(O)(CC(=O)Nc3ccc4[nH]c(=O)oc4c3)CC2)cc1 [Compound I-40] | 7.82 | 
13 | O=C(C=C1CCN(c2ccc(F)cc2)CC1)Nc1ccc2[nH]c(=O)oc2c1 [Compound I-33] | 7.43 | 
14 | O=C(Nc1ccc2[nH]c(=O)oc2c1)C(O)C1CCN(c2ccc(C(F)(F)F)cc2)CC1 (stereo not shown) [Compound I-25] | 7.20 | 
15 | O=C(C=C1CCN(c2ccc(Cl)c(F)c2)CC1)Nc1ccc2[nH]c(=O)oc2c1 [Compound I-188] |  | IC50 [2]: 0.021 µM
16 | O=C(Nc1ccc2[nH]c(=O)[nH]c2c1)C(=O)N1CCN(c2ccc(F)cc2)CC1 [Compound I-85] |  | IC50 [2]: 0.067 µM
17 | O=C(Nc1cnc2[nH]c(=O)oc2c1)C(=O)N1CCN(c2ccc(C(F)(F)F)cc2)CC1 [Compound I-74] | 7.41 | 
18 | O=C(NCC1=CCN(c2ccc(C(F)(F)F)cc2)CC1)c1ccc2[nH]c(=O)sc2c1 [Compound I-78] | 7.51 | 
19 | O=C(CC1CCN(c2ccc(OC(F)(F)F)cc2)CC1)Nc1ccc2[nH]c(=O)oc2c1 [Compound I-226] |  | pIC50 [2]: ≥ 7.00
20 | O=C(CC1=CCN(c2ccc(C(F)(F)F)cc2)CC1)Nc1ccc2[nH]c(=O)oc2c1 [Compound I-53] | 7.17 | 
21 | O=C(CC1(O)CCN(c2ccc(F)c(C(F)(F)F)c2)CC1)Nc1ccc2[nH]c(=O)oc2c1 [Compound I-81] | 7.21 | 

Further lines, with some results ahead:

Row | pIC50 [1, 3] | SMILES | also measured
22 | 7.36 | O=C(NCC1CCN(c2ccc(Cl)c(F)c2)CC1)c1ccc2[nH]c(=O)oc2c1 [Compound I-140] | 
23 | 7.23 | O=C(CC1(O)CCN(c2ccc(Cl)c(Cl)c2)CC1)Nc1cnc2[nH]c(=O)oc2c1 [Compound I-197] | 
24 | 7.36 | O=C(NCC1CCN(c2ccc(Cl)c(Cl)c2)CC1)c1ccc2[nH]c(=O)oc2c1 [Compound I-138] | 
25 | 8.05 | O=C(Nc1ccc2[nH]c(=O)oc2c1)C(=O)N1CCN(c2ccc(F)c(Cl)c2)CC1 [Compound I-110] | 
